Test results taken from patent publication US10273241B2 (President and Fellows of Harvard College, priority 2013, dated 2019).

Tested on: MV4;11
Test: Cell growth assay, MV4;11 AML cell line
Assay type: cell-based, human
Details: Homo sapiens, MV4-11, 168 h; day 7; printed as symbol; read-out: MV4;11 GI50 day 7
Experimental: (§1) For all other cell lines, compounds were serially diluted in medium and dispensed in triplicate in 96-well plates (0.1% DMSO final for assay) followed by the addition of exponentially growing cells at densities ranging from 5,000 to 30,000 cells/well. Cells were also seeded into 2 additional control wells containing vehicle (0.1% DMSO). […] To determine the estimated cell number in each well, cells that were counted in the control well were diluted 3-fold for an 8-point dilution series, and transferred to 384-well plates in duplicate, 20 μL per well. Cells in all other wells were diluted 4-fold and transferred to 384-well plates in duplicate, 20 μL per well. 20 μL of CellTiter-Glo (Promega) was subsequently added to all wells and luminescence was detected using a SPECTRAmax M3. The control well dilution series was fit to a linear regression and used as a standard for calculating the estimated cell number for each well. For days 7 and 10, total estimated cell number represents the split-adjusted theoretical cell number.

Row | GI50 [nM] | SMILES
1 | > 1000 | CN(C)[C@H]1CCC2=CC3=CC[C@]4(C)[C@@H](NCc5cccnc5)CC[C@H]4C34CC[C@]2(C1)O4 [46B, β-dimethylamine aminomethylpyridine]
2 | > 1000 | CN(C)[C@H]1CCC2=CC3=CC[C@]4(C)C(C(=O)Nc5cccnc5)=CC[C@H]4[C@@]34CCC2(C1)O4 [49B, β-dimethylamine 17,18-unsaturated amidepyridine]
3 | > 1000 | CN(C)[C@H]1CCC2=CC3=CC[C@]4(C)[C@@H](C(=O)Nc5cccnc5)CC[C@H]4[C@@]34CCC2(C1)O4 [50B, β-dimethylamine amidepyridine]
4 | > 1000 | CN(C)[C@H]1CCC2=CC3=CC[C@]4(C)C(c5ccc6cnncc6c5)=CC[C@H]4C34CC[C@]2(C1)O4 [55B, β-dimethylamine 17,18-unsaturated phthalazine]
5 | > 1000 | CN(C)[C@H]1CCC2=CC3=CC[C@]4(C)C(c5ccc6cn[nH]c6c5)=CC[C@H]4C34CC[C@]2(C1)O4 [58B, β-dimethylamine 17,18-unsaturated 6-indazole]
6 | > 1000 | CN(C)[C@H]1CCC2=CC3=CC[C@]4(C)C(c5ccc6[nH]ncc6c5)=CC[C@H]4C34CC[C@]2(C1)O4 [61B, β-dimethylamine 17,18-unsaturated 5-indazole]

Same assay, conditions: Homo sapiens, MV4-11, 240 h, read-out: MV 4;11 GI50 day 10 (nM)

Row | SMILES | GI50 [nM]
7 | CCN(C(C)C)[C@H]1CCC2=CC3=CC[C@]4(C)[C@@H](c5ccc6ccncc6c5)CC[C@H]4[C@@]34CC[C@]2(C1)O4 [34B] | 8.5

Same assay, conditions: Homo sapiens, MV4-11, 240 h; day 10; cells passaged, fresh compound added on days 3 and 7; read-out: MV 4;11 GI50 day 10

Row | SMILES | GI50 [nM]
8 | COCCN(CCOC)[C@H]1CCC2=CC3=CC[C@]4(C)C(c5ccc6ccncc6c5)CC[C@H]4[C@@]34CC[C@]2(C1)O4 (stereo partly drawn) [28B, β-bis-2-methoxyethylamine] | 9.5
9 | C[C@]12CC=C3C=C4CC[C@H](N5[C@H]6CC[C@@H]5CC6)C[C@]45CC[C@]3(O5)[C@@H]1CC[C@@H]2c1ccc2ccncc2c1 [31B, β-7-Azabicyclo[2.2.1]heptane] | 75

The next lines start with the values.

Row | GI50 [nM] | SMILES
10 | 1.75 | C[C@]12CC=C3C=C4CC[C@@H]([N+](C)(C)[O-])CC45CC[C@]3(O5)[C@@H]1CC[C@@H]2c1ccc2ccncc2c1 [14ANO, 14A-N-Oxide]
11 | 1 | C[C@]12CC=C3C=C4CC[C@@H](N5CCC5)CC45CC[C@]3(O5)[C@@H]1CC[C@@H]2c1ccc2ccncc2c1 [18A, α-azetidine]
12 | 8 | C[C@]12CC=C3C=C4CC[C@H](N5CCCC5)C[C@]45CC[C@]3(O5)[C@@H]1CC[C@@H]2c1ccc2ccncc2c1 [19B, β-pyrrolidine]
13 | 20 | CN[C@H]1CCC2=CC3=CC[C@]4(C)C(c5ccc6ccncc6c5)CC[C@H]4C34CC[C@]2(C1)O4 (stereo partly drawn) [24B, β-monomethylamine]
14 | 4 | [2H]C([2H])([2H])N([C@H]1CCC2=CC3=CC[C@]4(C)C(c5ccc6ccncc6c5)CC[C@H]4[C@@]34CC[C@]2(C1)O4)C([2H])([2H])[2H] (stereo partly drawn) [26B, β-deuterodimethylamine]
15 | 7 | COCCN(C)[C@H]1CCC2=CC3=CC[C@]4(C)C(c5ccc6ccncc6c5)CC[C@H]4[C@@]34CC[C@]2(C1)O4 (stereo partly drawn) [27B, β-2-methoxyethylmethylamine]
16 | 7 | CN(CCF)[C@H]1CCC2=CC3=CC[C@]4(C)C(c5ccc6ccncc6c5)CC[C@H]4[C@@]34CC[C@]2(C1)O4 (stereo partly drawn) [29B, β-2-fluoroethylmethylamine]
17 | 20 | CN(CC(F)F)[C@H]1CCC2=CC3=CC[C@]4(C)C(c5ccc6ccncc6c5)CC[C@H]4[C@@]34CC[C@]2(C1)O4 (stereo partly drawn) [30B, β-2,2-difluoroethylmethylamine]
18 | 27 | CC(C)N[C@H]1CCC2=CC3=CC[C@]4(C)[C@@H](c5ccc6ccncc6c5)CC[C@H]4[C@@]34CC[C@]2(C1)O4 [32B, β-isopropylamine]
19 | 22 | CC(C)N(C)[C@H]1CCC2=CC3=CC[C@]4(C)[C@@H](c5ccc6ccncc6c5)CC[C@H]4[C@@]34CC[C@]2(C1)O4 [33B, β-isopropylmethylamine]

Same assay, conditions: Homo sapiens, MV4-11; day 7; fresh compound added on day 3; read-out: MV4;11 GI50 day 7

Row | GI50 [nM] | SMILES
20 | 15 | C[C@]12CC=C3C=C4CC[C@H](N5CCCC5)C[C@]45CC[C@]3(O5)[C@@H]1CC[C@@H]2c1ccc2ccncc2c1 [19B, β-pyrrolidine]

Tested on: MOLM-14
Test: Cell growth assay, MOLM-14 AML cell line
Assay type: cell-based, human
Details: Homo sapiens, MOLM-14, 168 h; day 7; printed as symbol; read-out: MOL M14 GI50 day 7
Experimental: as §1

Row | GI50 [nM] | SMILES
21 | > 1000 | CN(C)[C@H]1CCC2=CC3=CC[C@]4(C)[C@@H](NCc5cccnc5)CC[C@H]4C34CC[C@]2(C1)O4 [46B, β-dimethylamine aminomethylpyridine]
22 | > 1000 | CN(C)[C@H]1CCC2=CC3=CC[C@]4(C)C(C(=O)Nc5cccnc5)=CC[C@H]4[C@@]34CCC2(C1)O4 [49B, β-dimethylamine 17,18-unsaturated amidepyridine]
23 | > 1000 | CN(C)[C@H]1CCC2=CC3=CC[C@]4(C)[C@@H](C(=O)Nc5cccnc5)CC[C@H]4[C@@]34CCC2(C1)O4 [50B, β-dimethylamine amidepyridine]
24 | > 1000 | CN(C)[C@H]1CCC2=CC3=CC[C@]4(C)C(c5ccc6cnncc6c5)=CC[C@H]4C34CC[C@]2(C1)O4 [55B, β-dimethylamine 17,18-unsaturated phthalazine]
25 | > 1000 | CN(C)[C@H]1CCC2=CC3=CC[C@]4(C)C(c5ccc6cn[nH]c6c5)=CC[C@H]4C34CC[C@]2(C1)O4 [58B, β-dimethylamine 17,18-unsaturated 6-indazole]
26 | > 1000 | CN(C)[C@H]1CCC2=CC3=CC[C@]4(C)C(c5ccc6[nH]ncc6c5)=CC[C@H]4C34CC[C@]2(C1)O4 [61B, β-dimethylamine 17,18-unsaturated 5-indazole]

Same assay, conditions: Homo sapiens, MOLM-14, 240 h, read-out: MOL M14 G150 day 10 (nM)

Row | SMILES | IC50 [nM]
27 | CCN(C(C)C)[C@H]1CCC2=CC3=CC[C@]4(C)[C@@H](c5ccc6ccncc6c5)CC[C@H]4[C@@]34CC[C@]2(C1)O4 [34B] | 15

Same assay, conditions: Homo sapiens, MOLM-14, 240 h; day 10; cells passaged, fresh compound added on days 3 and 7; read-out: MOL M14 G150 day 10

Row | SMILES | GI50 [nM]
28 | COCCN(CCOC)[C@H]1CCC2=CC3=CC[C@]4(C)C(c5ccc6ccncc6c5)CC[C@H]4[C@@]34CC[C@]2(C1)O4 (stereo partly drawn) [28B, β-bis-2-methoxyethylamine] | 15
29 | C[C@]12CC=C3C=C4CC[C@H](N5[C@H]6CC[C@@H]5CC6)C[C@]45CC[C@]3(O5)[C@@H]1CC[C@@H]2c1ccc2ccncc2c1 [31B, β-7-Azabicyclo[2.2.1]heptane] | 100

Other lines, results leading:

Row | GI50 [nM] | SMILES
30 | 14 | C[C@]12CC=C3C=C4CC[C@@H]([N+](C)(C)[O-])CC45CC[C@]3(O5)[C@@H]1CC[C@@H]2c1ccc2ccncc2c1 [14ANO, 14A-N-Oxide]
31 | 3 | C[C@]12CC=C3C=C4CC[C@@H](N5CCC5)CC45CC[C@]3(O5)[C@@H]1CC[C@@H]2c1ccc2ccncc2c1 [18A, α-azetidine]
32 | 10 | C[C@]12CC=C3C=C4CC[C@H](N5CCCC5)C[C@]45CC[C@]3(O5)[C@@H]1CC[C@@H]2c1ccc2ccncc2c1 [19B, β-pyrrolidine]
33 | 50 | CN[C@H]1CCC2=CC3=CC[C@]4(C)C(c5ccc6ccncc6c5)CC[C@H]4C34CC[C@]2(C1)O4 (stereo partly drawn) [24B, β-monomethylamine]
34 | 6 | [2H]C([2H])([2H])N([C@H]1CCC2=CC3=CC[C@]4(C)C(c5ccc6ccncc6c5)CC[C@H]4[C@@]34CC[C@]2(C1)O4)C([2H])([2H])[2H] (stereo partly drawn) [26B, β-deuterodimethylamine]
35 | 10 | COCCN(C)[C@H]1CCC2=CC3=CC[C@]4(C)C(c5ccc6ccncc6c5)CC[C@H]4[C@@]34CC[C@]2(C1)O4 (stereo partly drawn) [27B, β-2-methoxyethylmethylamine]
36 | 14 | CN(CCF)[C@H]1CCC2=CC3=CC[C@]4(C)C(c5ccc6ccncc6c5)CC[C@H]4[C@@]34CC[C@]2(C1)O4 (stereo partly drawn) [29B, β-2-fluoroethylmethylamine]
37 | 55 | CN(CC(F)F)[C@H]1CCC2=CC3=CC[C@]4(C)C(c5ccc6ccncc6c5)CC[C@H]4[C@@]34CC[C@]2(C1)O4 (stereo partly drawn) [30B, β-2,2-difluoroethylmethylamine]
38 | 55 | CC(C)N[C@H]1CCC2=CC3=CC[C@]4(C)[C@@H](c5ccc6ccncc6c5)CC[C@H]4[C@@]34CC[C@]2(C1)O4 [32B, β-isopropylamine]
39 | 60 | CC(C)N(C)[C@H]1CCC2=CC3=CC[C@]4(C)[C@@H](c5ccc6ccncc6c5)CC[C@H]4[C@@]34CC[C@]2(C1)O4 [33B, β-isopropylmethylamine]

Same assay, conditions: Homo sapiens, MOLM-14; day 7; fresh compound added on day 3; read-out: MOL M14 GI50 day 7

Row | GI50 [nM] | SMILES
40 | 16 | C[C@]12CC=C3C=C4CC[C@H](N5CCCC5)C[C@]45CC[C@]3(O5)[C@@H]1CC[C@@H]2c1ccc2ccncc2c1 [19B, β-pyrrolidine]
